Measurements reported in patent publication US20080171710A1, “The Redox/Fyn/c-Cbl Pathway” (priority 2007, published 2008).
Read-outs that look alike come from different tables or passages of the source.

How the values were obtained:
PDGFRα [1] = assay type: cell-based, rat; settings: for effect on MeHg-induced reductions in levels of PDGFRα: together with MeHg; for effect on Pb- and paraquat-induced reductions in levels of PDGFRα: together with Pb (1 μM) or paraquat (5 μM); for absolute levels of PDGFRα: O-2A/OPCs in PDGF, 24 hr exposure
Fyn [2] = target: T1, Fyn (Rattus norvegicus, UniProt Q62844); assay type: cell-based; settings: for effect on MeHg-induced Fyn activation: added 1 h before MeHg
T1 construct: 250 μg of total cell lysates were immunoprecipitated with anti-Fyn antibody; endogenous in cells; host or cells: primary rat O-2A/OPCs
T1 sequence (Q62844 whole entry): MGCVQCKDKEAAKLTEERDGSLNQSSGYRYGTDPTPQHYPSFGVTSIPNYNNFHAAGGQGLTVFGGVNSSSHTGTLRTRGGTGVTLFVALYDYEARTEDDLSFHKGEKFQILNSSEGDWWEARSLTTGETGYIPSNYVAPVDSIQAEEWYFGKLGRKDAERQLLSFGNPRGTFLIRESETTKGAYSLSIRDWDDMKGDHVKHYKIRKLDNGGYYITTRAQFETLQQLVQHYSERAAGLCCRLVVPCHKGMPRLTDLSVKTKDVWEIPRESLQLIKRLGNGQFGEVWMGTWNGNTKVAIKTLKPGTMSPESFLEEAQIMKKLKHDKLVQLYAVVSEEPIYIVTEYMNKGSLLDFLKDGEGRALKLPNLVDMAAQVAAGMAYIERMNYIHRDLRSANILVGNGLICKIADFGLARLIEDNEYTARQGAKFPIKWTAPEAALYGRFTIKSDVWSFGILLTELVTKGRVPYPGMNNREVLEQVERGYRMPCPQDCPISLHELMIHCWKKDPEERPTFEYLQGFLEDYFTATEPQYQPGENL
Protocol: Fyn kinase activity was quantified using the Universal Tyrosine Kinase Assay Kit (Takara, Madison, Wis., United States). O-2A/OPCs exposed to different treatments were solubilized with an equal volume of the extraction buffer provided with the kit for 15 min, and the resulting lysates were centrifuged at 13,000×g for 15 min at 4° C.; 250 μg of total cell lysates were immunoprecipitated with anti-Fyn antibody (Santa Cruz Biotechnology). Following immunoprecipitation, Fyn immune complexes were washed four times with extraction buffer, and then Fyn kinase activities of each sample were assayed using the kit according to the manufacturer's instructions.

c-Cbl = assay type: cell-based, rat; settings: for effect on MeHg-induced c-Cbl phosphorylation: added 1 h before MeHg
Protocol: For the co-immunoprecipitation assay, anti-c-Cbl monoclonal antibody (BD PharMingen) or anti-PDGFRα polyclonal antibody (Santa Cruz Biotechnology) was added to the pre-cleared cell lysates (250 μg of total protein), and the mixtures were gently rocked for 2 h at 4° C. A total of 30 μl of protein A/G agarose was then added to the mixture followed by rotating at 4° C. overnight. The protein A/G agarose was then spun down and washed thoroughly three times. The precipitates were resolved on an 8% SDS-PAGE gel and then were subjected to Western blot analysis using an anti-p-Tyr (for c-Cbl phosphorylation assay) or ubiquitin (for PDGFR ubiquitylation assay) antibody (Santa Cruz Biotechnology).

O-2A/OPCs [3] = assay: In vitro BrdU incorporation assay; assay type: cell-based, rat; settings: with TMX, 2 days
Protocol: Cell proliferation was assessed by bromodeoxyuridine (BrdU) incorporation and by using the mouse anti-BrdU mAb IgGl (1:100; Sigma) to label dividing cells. Stained cells on cover slips were rinsed two times in 1×PBS, counterstained with 4′6-diamidino-2-phenylindole (DAPI; Molecular Probes, Eugene, Oreg., United States) and mounted on glass slides with Fluoromount (Molecular Probes). Staining against surface proteins was performed on cultures of living cells or on cells fixed with 2% paraformaldehyde. Staining with intracellular antibodies was performed by permeabilizing cells with ice-cold methanol for 4 min or by using 0.5% Triton for 15 mm on 2% parafomaldhyde-fixed cells. Antibody binding was detected with appropriate fluorescent dye-conjugated secondary antibodies at 10 μg/ml (Southern Biotech, Birmingham, Ala., United States) or Alexa Fluor-coupled antibodies at a concentration of 1 μg/ml (Molecular Probes), applied for 20 min. Anti-BrdU monoclonal antibody was obtained from Sigma.

O-2A/OPCs [4] = assay: Cell death of O-2A/OPCs on exposure; assay type: cell-based, rat
Protocol: To generate sufficient numbers of cells for biochemical analysis, cells, were expanded through one to two passages in PDGF+FGF-2 before replating in the presence of PDGF alone. When cells achieved approximately 50% confluence, MeHg, Pb, or paraquat was added to their medium at concentrations indicated. Doses for the toxicants were chosen on the basis of dose-response curves to identify sub-lethal exposure levels, as a reflection of blood and brain toxicant levels of these compounds and, where applicable, on the basis of previous reports. All toxicant concentrations examined were confirmed to cause death of less than 5% of cells over the time course of the experiment.

c-Met = assay type: cell-based, rat; settings: for c-Met levels: O-2A/OPCs in HGF, 24 hr exposure
Text: (§1) Anti-phosphorylated Erk monoclonal, anti-Erk monoclonal, anti-TrkC polyclonal anti-Fyn polyclonal, anti-EGFR polyclonal, anti-c-Met polyclonal, anti-phospho-tyrosine monoclonal, and anti-PDGFRα polyclonal antibodies were obtained from Santa Cruz Biotechnology (Santa Cruz, Calif., United States). Anti-c-Cbl monoclonal antibody was obtained from BD PharMingen (San Diego, Calif., United States). Anti-phosphorylated Akt monoclonal and anti-Akt polyclonal antibodies were obtained from Cell Signaling Technology (Beverly, Mass., United States). Anti-phosphorylated PDGPRα polyclonal antibody was obtained from Biosource (Carlsbad, Calif., United States). The cell culture samples were collected and lysed in RAPI buffer, whereas dissected tissue samples were sonicated in RAPI buffer. Samples were resolved on SDS-PAGE gels and transferred to PVDF membranes (PerkinElmer Life Science. Wellesley, Mass., United States), After being blocked in 5% skim milk in PBS containing 0.1% Tween 20, membranes were incubated with a primary antibody, followed by incubation with an HRP-conjugated secondary antibody (Santa Cruz Biotechnology). Membranes were visualized using Western Blotting Luminol Reagent (Santa Cruz Biotechnology). All analyses of signaling pathway components were conducted in the presence of ligand for the receptor pathway under analysis (either PDGF-AA for PDGFRα, NT-3 or TrkC, HGF for c-Met, or EGF for EGFR).

EGFR = assay type: cell-based, rat; settings: MeHg, Pb or paraquat
Text: as §1

TrkC = assay type: cell-based, rat; settings: for levels of TrkC: O-2A/OPCs in NT-3, 24 hr exposure
Text: as §1

O-2A/OPCs [5] = assay: Intracellular ROS / redox state measurement; assay type: cell-based, rat; settings: 1 μM Pb or 5 μM paraquat; dyes dihydro-chloromethyl-rosamine or dihydro-calcein-AM
Protocol: Cells were plated in 96-well microplates and grown to about 60% continence. […] Cells were then washed once with HBSS and growth medium to remove free probe. Then, fresh growth medium was added and a baseline fluorescence reading was taken prior to treatment. For NAC pre-treatment. […] Fluorescence was measured in a Wallac 1420 Victor2 multilabel counter (PerkinElmer) using excitation and emission wavelengths of 485 nm and 535 nm, respectively, at different time courses as indicated in the figures. Results are presented as the value change from baseline by the formula (Ftexp−Ftbase)/Ftbase normalized with the control group, where Ftexp=fluorescence at any given time during the experiment in a give well and Ftbase=baseline fluorescence of the same well.

PDGFRα [6] = assay: PDGFRα phosphorylation (Western blot, anti-PDGFRα(pY742)); assay type: cell-based, rat; settings: 30 nM MeHg; 1 μM Pb; 5 μM paraquat
Text: The cells were then collected and lysed for Western blotting. […] Cells were lysed for Western blot analysis using anti-PDGFRα(pY742) antibody. The membranes were de-probed and then re-probed with antibody against total PDGFRα and anti-β-tubulin antibody. […]
as §1

Erk1/2 = assay type: cell-based, rat; settings: for Erk1/2 phosphorylation caused by PDGF: co-exposure 24 hr, TH, BMP4, FGF-2 or NT-3 (10 ng/ml); for NT-3-stimulated Erk1/2 phosphorylation: co-exposure to TH, BMP-4 or FGF-2
Protocol: (§2) Cells were deprived of PDGF-AA for 5 h before re-exposure to PDGF-AA (10 ng/ml) for 1 h for Western blot or 6 h for luciferase assays of pathway activation. Transient transfection was performed using Fugene6 (Roche, Basel, Switzerland ) transfection solution according to the manufacturer's protocol. For the luciferase assay, cells seeded in 12-well plates were transfected with a reporter plasmid SRE-Luc(firefly) or NF-κB-Luc(firefly) (BD-Clontech, Palo Alto, Calif., United States) and an internal control plasmid pRLSV40-LUC. Analyses of luciferase activity were performed according to the protocol of the Dual Luciferase Assay System (Promega, Madison, Wis., United States), which uses an internal control of Renilla luciferase for quantification, and relative light units were measured using a luminometer.
as §1

SRE-luciferase reporter = SRE-luciferase reporter assay; assay type: cell-based, rat; settings: PDGF plus TH or BMP-4 (10 ng/ml), 24 hr
Protocol: as §2

Fyn [7] = assay type: cell-based, rat; settings: exposure to Aβ (5-20 μM)
[8] = added 1 h before Pb or paraquat
[9] = NAC 1 mM, PP1 100 nM or ICI 182,780 200 nM with TMX
[10] = 30 nM MeHg, 1 μM Pb, 5 μM paraquat
[11] = O-2A/OPCs induced to divide by PDGF, 3-4 hr exposure

Molecule: CN(C)CCCn1cc(C2=C(c3c[nH]c4ccccc34)C(=O)NC2=O)c2ccccc21 [BIM-1, bisindoleylmaleimide I]
- effect on MeHg-induced reductions in levels of PDGFRα (PDGFRα [1]): did not protect
- effect on Pb- and paraquat-induced reductions in levels of PDGFRα (PDGFRα [1]): did not protect
- effect on MeHg-induced Fyn activation (Fyn [2]): did not prevent
- effect on Pb- and paraquat-induced Fyn activation (Fyn [2]; [8]): did not prevent
- effect on MeHg-induced c-Cbl phosphorylation (c-Cbl): did not prevent
- effect on Pb- and paraquat-induced c-Cbl phosphorylation (c-Cbl; [8]): did not prevent

Molecule: C[C@]12CC[C@@H]3c4ccc(O)cc4C[C@@H](CCCCCCCCC[S+]([O-])CCCC(F)(F)C(F)(F)F)[C@H]3[C@@H]1CC[C@@H]2O (some centres unmarked) [ICI 182780]
- effect on TMX effect on cell proliferation (O-2A/OPCs [3]): blocked
- effect on TMX-induced reductions in levels of PDGFRα (PDGFRα [1]; [9]): rescued
- effect on TMX-induced activation of Fyn (Fyn [2]; [9]): prevented
- effect on TMX-induced activation of c-Cbl (c-Cbl; [9]): prevented

Molecule: CC(C)(C)n1nc(-c2ccc(Cl)cc2)c2c(N)ncnc21 [PP2]
- effect on MeHg-induced Fyn activation (Fyn [2]): blocked
- effect on MeHg-induced c-Cbl phosphorylation (c-Cbl): blocked

Molecule: [Pb] [Pb, lead]
- cell death at the concentrations used (O-2A/OPCs [4]; MeHg at lower concentrations (not above 50 nM), 1 μM Pb, 5 μM paraquat): did not cause cell death
- levels of c-Met after toxicant exposure (c-Met; MeHg, Pb or paraquat): also reduced
- levels of EGFR after toxicant exposure (EGFR): also reduced
- levels of TrkC after toxicant exposure (TrkC; MeHg, Pb or paraquat): neither Pb or paraquat caused a reduction
- cells more oxidized (intracellular redox state) (O-2A/OPCs [5]): approximately 20%
- total levels of PDGFRα after toxicant exposure (PDGFRα [1]; MeHg 30 nM, 1 μM Pb, 5 μM paraquat): reduced
- phosphorylation of PDGFRα after toxicant exposure (PDGFRα [6]): reduced
- Fyn activation after toxicant exposure (Fyn [2]; [10]): activation of Fyn
- PDGF-induced Erk1/2 phosphorylation after toxicant exposure (Erk1/2; 30 nM MeHg 24 h, 1 μM Pb, 5 μM paraquat): reduced levels of Erk1/2 phosphorylation
- c-Cbl phosphorylation after toxicant exposure (c-Cbl; [10]): increased phosphorylation of c-Cbl

Molecule: N[C@@H](Cc1cc(I)c(Oc2ccc(O)c(I)c2)c(I)c1)C(=O)O [TH, thyroid hormone, reference compound]
- absolute levels of PDGFRα (PDGFRα [1]): reductions
- Erk1/2 phosphorylation caused by PDGF (Erk1/2): reduce
- NT-3-stimulated Erk1/2 phosphorylation (Erk1/2): not affected
- SRE-reporter gene expression (SRE-luciferase reporter): greatly reduces

Molecule: C[C@@H]1C[C@@H]([C@H](O)CC2CC(=O)NC(=O)C2)C(=O)[C@@H](C)C1 [cycloheximide]
- levels of PDGFRα on inhibition of protein synthesis (PDGFRα [1]; cycloheximide 1 μg/ml): reductions

Molecule: O=C1N[C@H](C(=O)O)CS1 [proeysteinc, procysteine]
- effect on Pb- and paraquat-induced reductions in levels of PDGFRα (PDGFRα [1]): protected

Molecule: Aβ(1-42): amino acids 1-42 of amyloid beta protein
- cell death (O-2A/OPCs [4]; 5-10 μM Aβ(1-42), 48 hrs): little cell death
- concentration inducing progenitor cell death (O-2A/OPCs [4]; O-2A/OPCs): 20 µM
- Fyn phosphorylation (Fyn [7]): phosphorylated
- levels of PDGFRα (PDGFRα [1]; exposure to Aβ): reduced
- Erk1/2 phosphorylation induced by NT-3 (Erk1/2; exposure to Aβ(1-42)): had no effect
- PDGF-mediated induction of Erk1/2 phosphorylation (Erk1/2; exposure to Aβ(1-42)): inhibited
- c-Cbl phosphorylation (c-Cbl; exposure to Aβ (5-20 μM)): phosphorylated

Molecule: bone morphogenetic protein-4 [BMP-4]
- c-Met levels (c-Met): decreases
- levels of TrkC (TrkC): unaffected
- absolute levels of PDGFRα (PDGFRα [1]): reductions
- fyn activation (Fyn [2]; differentiation inducers TH and BMP): activated
- Erk1/2 phosphorylation caused by PDGF (Erk1/2): reduce
- NT-3-stimulated Erk1/2 phosphorylation (Erk1/2): not affected
- SRE-reporter gene expression (SRE-luciferase reporter): greatly reduces
- c-Cbl phosphorylation (c-Cbl; [11]): increased phosphorylation

Molecule: fibroblast growth factor-2 [FGF-2]
- c-Met levels (c-Met): increased
- levels of TrkC (TrkC): unaffected
- levels of PDGFRα in the presence of actinomycin D (PDGFRα [1]; FGF-2 10 ng/ml and PDGF, 24 hr): still show increased levels
- absolute levels of PDGFRα (PDGFRα [1]): increase
- Erk1/2 phosphorylation caused by PDGF (Erk1/2): enhances signaling
- NT-3-stimulated Erk1/2 phosphorylation (Erk1/2): not affected
- c-Cbl phosphorylation (c-Cbl; [11]): caused a reduction

B1: scrambled (Scr) RNAi: scrambled negative control for c-Cbl RNAi, SEQ ID NO: 7 and 8 (nucleic acid)
chain 1: TTTAAACCCGGCCCTTTGGTTCAAGAGACCAAAGGGCCGGGTTTAAATTTTTT
chain 2: AATTAAAAAATTTAAACCCGGCCCTTTGGTCTCTTGAACCAAAGGGCCGGGTTTAAAGGCC
- effect on MeHg-induced reductions in levels of PDGFRα (PDGFRα [1]): had no effect

B2: neurotrophin-3 (protein, UniProt P20783 139-257, looked up)
Neurotrophin-3: YAEHKSHRGEYSVCDSESLWVTDKSSAIDIRGHQVTVLGEIKTGNSPVKQYFYETRCKEARPVKNGCRGIDDKHWNSQCKTSQTYVRALTSENNKLVGWRWIRIDTSCVCALSRKIGRT
notes: signaling molecule that enhances self-renewal
- c-Met levels (c-Met): increased
- levels of TrkC (TrkC): unaffected
- absolute levels of PDGFRα (PDGFRα [1]): increase
- Erk1/2 phosphorylation caused by PDGF (Erk1/2): enhances signaling
- c-Cbl phosphorylation (c-Cbl; [11]): caused a reduction
